Where a name gives a salt, the structure may show the parent alone. Read-outs that look alike come from different tables or passages of the source.
Legend:
HTT mRNA = experiment: RT-qPCR splicing assay, HTT mRNA canonical (CJ) and alternative (AJ) junction; type: cell-based, human; details: Homo sapiens
Procedure, shortened: (§1)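 A673 or K562 cells treated 24 h at 37 °C with an 11-point 3-fold dilution series (top 10 uM, DMSO ≤0.25%). Lysates went directly to one-step RT-qPCR quantifying canonical (CJ) and alternative-exon (AJ) junctions, normalized to GAPDH, GUSB or PPIA. Values from ΔΔCt versus DMSO, RQ = 2^(−ΔΔCt), expressed as percentage response.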

HTT = experiment: HiBiT protein abundance assay, HTT (K562 HiBiT knock-in); type: cell-based, human; details: HiBiT knock-in K562 cells, 24 hours, top dose 10 μM
Procedure, shortened: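 Endogenously HiBiT-tagged K562 lines were treated for 24 h at 37 °C with 10-point 3-fold dilutions (top 10 μM final, DMSO ≤0.25%). Lytic LgBiT complementation luminescence was normalized between unmodified K562 (PC) and DMSO-treated tagged cells (NC); IC50 was interpolated at 50% from a four-parameter logistic fit.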

Target C = experiment: HiBiT protein abundance assay, Target C (K562 HiBiT knock-in); type: cell-based, human; details: HiBiT knock-in K562 cells, 24 hours, top dose 10 μM
Procedure, shortened: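 K562 HiBiT knock-in cells (10000/well) were treated 24 h at 37° C with a 10-point 3-fold dilution series (top 10 μM final, ≤0.25% DMSO). HiBiT luminescence was read after lytic LgBiT detection. Percent response used unmodified K562 and DMSO-treated knock-in controls, and IC50 came from a four-parameter fit at 50% of untreated.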

K562 cells = experiment: Cell Titer Glo 2.0 cell viability (toxicity) assay, K562; details: 500 cells/well, 72 hours
SMN2 mRNA = experiment: RT-qPCR splicing assay, SMN2 mRNA; type: cell-based, human; details: Homo sapiens, canonical junction qPCR panel, Table 4; read-out: SMN2 IC50 (decrease in CJ mRNA levels)
Procedure, shortened: as §1

[1] = RT-qPCR, HTT alternative junction mRNA increase, read-out: HTT AJ (increase in alternative junction mRNA, AC50)
[2] = RT-qPCR, HTT canonical junction mRNA decrease, read-out: HTT CJ (decrease in canonical junction mRNA, IC50)
[3] = canonical junction qPCR panel, Table 4, read-out: HTT IC50 (decrease in CJ mRNA levels)
[4] = HTT alternative junction mRNA, RT-qPCR, read-out: HTT AJ (increase in AJ mRNA, AC50)
[5] = HTT canonical junction mRNA, RT-qPCR, read-out: HTT CJ (decrease in CJ mRNA levels, IC50)

SMILES	AC50 (HTT mRNA; [1]) [nM]	IC50 (HTT mRNA; [2]) [nM]	IC50 (HTT mRNA; [3]) [nM]	IC50 (HTT) [nM]	IC50 (Target C) [nM]	Effect of Exemplary Compounds on Cell Viability, K562 (K562 cells)	AC50 (HTT mRNA; [4]) [nM]	IC50 (HTT mRNA; [5]) [nM]	IC50 (SMN2 mRNA) [nM]
C[C@H]1CN(c2cc(F)c3nc(-c4cc(F)c5nn(C)cc5c4)ccc3c2)C[C@H](C)N1 (single isomer, unassigned) [Compound 760]	100 to 1000	< 100	< 100	100 to 1000	100 to 1000	B (B represents 100-1000 nM)			
C[C@H]1CN(c2cc(F)c3nc(-c4cc5cn(C)nc5cc4O)ccc3c2)C[C@H](C)N1 (single isomer, unassigned) [Compound 770]	100 to 1000	100 to 1000	100 to 1000	< 100	100 to 1000	B (B represents 100-1000 nM)			
Cc1cn2nc(-c3ccc4cc(N5C[C@H](C)N[C@@H](C)C5)cc(F)c4n3)cc(C)c2n1 (single isomer, unassigned) [Compound 799]	100 to 1000	100 to 1000	100 to 1000	100 to 1000	100 to 1000	B (B represents 100-1000 nM)			
Cc1c(O)c(-c2ccc3cc(N4C[C@H](C)N[C@@H](C)C4)cc(F)c3n2)cc2cn(C)nc12 (single isomer, unassigned) [Compound 800, 2,2,2-trifluoroacetate]	< 100	< 100	< 100	< 100	< 100	A (A represents <100 nM)			
Cc1nc(-c2cc3cn(C)nc3cc2O)nc2ccc(N3C[C@H](C)N[C@@H](C)C3)cc12 (single isomer, unassigned) [Compound 806]	1000 to 10000	> 10000	> 10000	100 to 1000	1000 to 10000	B (B represents 100-1000 nM)			
Cc1nc(-c2cc3cn(C)nc3c(C)c2O)nc2ccc(N3C[C@H](C)N[C@@H](C)C3)cc12 (single isomer, unassigned) [Compound 807]	1000 to 10000	> 10000	> 10000	100 to 1000	> 10000	B (B represents 100-1000 nM)			
Cn1cc2cc(-c3cc4ccc(C5CCNCC5)nc4cn3)c(O)cc2n1 [Compound 104]			1000 to 10000	1000 to 10000	1000 to 10000	C (C represents 1000-9999 nM)	1000 to 10000	1000 to 10000	100 to 1000
Cn1cc2cc(-c3ccc4nc(N5CC[C@H](NC6CCC6)C5)ccc4n3)c(O)cc2n1 [Compound 156]			< 100	< 100	< 100	B (B represents 100-1000 nM)	< 100	< 100	< 100
CC(C)N[C@H]1CCN(c2ccc3nc(-c4cc5cn(C)nc5cc4O)ccc3n2)C1 [Compound 171]			< 100	< 100	< 100	B (B represents 100-1000 nM)	< 100	< 100	< 100
Cc1cn2nc(-c3ccc4nc(N5CCC(NC(C)(C)C)C5)ccc4n3)cc(C)c2n1 (stereo not drawn) [Compound 186]			< 100	< 100	< 100	B (B represents 100-1000 nM)	< 100	< 100	< 100
Cn1cc2cc(-c3ccc4nc(N5CC[C@H](NCC6CC6)C5)ccc4n3)c(O)cc2n1 [Compound 194]			< 100	< 100	< 100	B (B represents 100-1000 nM)	< 100	< 100	< 100
CN(C)C1CCN(c2ccc3nc(-c4cc5cn(C)nc5c(F)c4O)ncc3c2)CC1 [Compound 757, 5-{6-[4-(dimethylamino)piperidin-1-yl]quinazolin-2-yl}-7-fluoro-2-methylindazol-6-ol]	1000 to 10000	1000 to 10000	1000 to 10000	1000 to 10000	1000 to 10000	A (A represents <100 nM)			< 100
C[C@@H]1CN(c2cc(F)c3nc(-c4cc(F)c5nn(C)cc5c4)ccc3c2)C[C@H](C)N1 [Compound 758, 6-[(3R,5S)-3,5-dimethylpiperazin-1-yl]-8-fluoro-2-(7-fluoro-2-methylindazol-5-yl)quinoline]	1000 to 10000	100 to 1000	100 to 1000	100 to 1000	100 to 1000	B (B represents 100-1000 nM)			< 100
C[C@@H]1CN(c2cc(F)c3nc(-c4cc5cn(C)nc5c(F)c4O)ccc3c2)C[C@H](C)N1 [Compound 763, 5-{6-[(3R,5S)-3,5-dimethylpiperazin-1-yl]-8-fluoroquinolin-2-yl}-7-fluoro-2-methylindazol-6-ol hydrochloride]	100 to 1000	< 100	< 100	< 100	< 100	A (A represents <100 nM)			< 100
C[C@@H]1CN(c2cc(F)c3nc(-c4cc5cn(C)nc5cc4O)ccc3c2)C[C@H](C)N1 [Compound 768, 5-{6-[(3R,5S)-3,5-dimethylpiperazin-1-yl]-8-fluoroquinolin-2-yl}-2-methylindazol-6-ol hydrochloride]	1000 to 10000	1000 to 10000	1000 to 10000	1000 to 10000	1000 to 10000	C (C represents 1000-9999 nM)			< 100
Cc1c(O)c(-c2nc(C(N)=O)c3cc(N4C[C@H](C)N[C@@H](C)C4)ccc3n2)cc2cn(C)nc12 [Compound 796]	100 to 1000	100 to 1000	100 to 1000	100 to 1000	100 to 1000	A (A represents <100 nM)			
C[C@H]1CN(c2ccc3nc(-c4cc5cn(C)nc5cc4O)nc(C(N)=O)c3c2)C[C@H](C)N1 [Compound 797]	100 to 1000	1000 to 10000	1000 to 10000	100 to 1000	1000 to 10000	A (A represents <100 nM)			
Cc1c(O)c(-c2ccc3cc(N4CCNC5(CC5)C4)cc(F)c3n2)cc2cn(C)nc12 [Compound 805, 5-(6-{4,7-diazaspiro[2.5]octan-7-yl}-8-fluoroquinolin-2-yl)-2,7-dimethylindazol-6-ol]	100 to 1000	< 100	< 100	< 100	100 to 1000	B (B represents 100-1000 nM)			

Source: US20250092065A1, “2-(INDAZOL-5-YL)-6-(PIPERIDIN-4-YL)-1,7-NAPHTHYRIDINE DERIVATIVES AND RELATED COMPOUNDS AS MODULATORS FOR SPLICING NUCLEIC ACIDS AND FOR THE TREATMENT OF PROLIFERATIVE DISEASES” (REMIX THERAPEUTICS INC., priority 2022, published 2025)
